This is an account of results in PMC2794250, “An MDM2 antagonist (MI-319) restores p53 functions and increases the life span of orally treated follicular lymphoma bearing animals” (2009).

Structures are written as SMILES.

For the assay, the target named is MDM2 (Homo sapiens, UniProt Q00987). The experiment in a line: biochemical.
Sequence of MDM2 (Q00987 1-118): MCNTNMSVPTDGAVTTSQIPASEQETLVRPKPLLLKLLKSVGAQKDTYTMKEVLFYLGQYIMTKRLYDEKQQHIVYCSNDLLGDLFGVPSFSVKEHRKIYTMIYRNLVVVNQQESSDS

`CC(C)(C)C[C@H]1N[C@@H](C(=O)NCC[C@H](O)CO)[C@H](c2ccc(F)c(Cl)c2)[C@@]12C(=O)Nc1cc(Cl)c(F)cc12` [MI-319]: affinity was put at a Ki of 9.6 ± 3.9 nM.
